“Also recorded” adds a separate entry of the source.
Legend:
[1] = test system: mitochondrial permeability transition pore (PTP); assay type: biochemical, mouse
Experimental: A, chemical structure of AA. B, D, Ca^2+ retention capacity (CRC) either in phosphate (Pi) buffer (B) or in arsenate (Asi) buffer (D). Calcium Green-5N fluorescence is reported as arbitrary units on the y axis.
Mitochondria were isolated either from livers of C57BL/6 mice through sequential centrifugations, or from cells, as described. To obtain mitochondria, cells were disrupted with a glass-Teflon potter in a buffer composed by 250 mM sucrose, 10 mM Tris-HCl, 0.1 mM EGTA-Tris, pH 7.4. Nuclei and plasma membrane fractions were separated by a first mild centrifugation (700× g, 10 min), and mitochondria were then spinned down at a higher speed (7000× g, 10 min). All procedures were carried out at 0–4°C.
PTP opening was detected as a fluorescence increase.

animal model = settings: ref [4]; cited from earlier work
Text: (§1) Antamanide (AA) is a monocyclic, homodetic decapeptide isolated from the poisonous mushroom Amanita phalloides. […] Little is known about the biochemical mechanisms underlying these diverse bioactivities. To explain its antitoxic activity, ...

[2] = test system: IL-2-induced multisystem organ edema; settings: ref [5]; cited from earlier work
Text: as §1

[3] = test system: hepatocyte membrane transporter for the phallotoxin phalloidin and for the amatoxin alpha-amanitin; settings: proposed; ref [6], [7]; cited from earlier work
Text: as §1

tumour cell models = settings: in vitro; ref [3]; cited from earlier work
Text: as §1

[4] = test system: phallotoxins and amatoxins; settings: cited from earlier work
Text: Antamanide (AA) is a monocyclic, homodetic decapeptide isolated from the poisonous mushroom Amanita phalloides. […] Little is known about the biochemical mechanisms underlying these diverse bioactivities.

mouse liver mitochondria = experiment: mitochondrial respiration assay, mouse liver mitochondria; assay type: biochemical; settings: polarography, Clark electrode, 25°C; data not shown
Experimental: Mitochondrial oxygen consumption was measured polarographically at 25°C with a Clark oxygen electrode (Yellow Springs Instruments, OH, USA). Mitochondria (0.6 mg per experimental point) were incubated in a solution of 130 mM KCl, 10 mM Tris-Mops, 1 mM Pi-Tris, 20 mM EGTA-Tris and 2 µM rotenone/5 mM succinate to assay basal respiration (state 4). ADP (200 µM) was subsequently added to measure state 3 respiration, followed by the uncoupling agent dinitrophenol (100 µM) to assess the maximal respiration rate.

HeLa cells = assay type: cell-based, human; settings: 30 min preincubation, TMRM, n = 4
Experimental: Figure 5 Effect of AA on mitochondrial potential of HeLa cells. A, bar graphs report the ratio between the CRC detected in the presence (CRC) and absence (CRC0) of increasing concentrations of AA in mitochondria from HeLa cells. […] B,C cytofluorimetric analysis of mitochondrial depolarization. HeLa cells were incubated with the TMRM probe and treated for 1 hour with the reported concentrations of either clotrimazole (CTM) or TAT-HK peptide. An unrelated TAT-linked peptide (TAT-Ctr) is used as a negative control. […] Bar graphs in B display the percentage of cells with depolarized mitochondria (mean±SD, n = 4). […] Histograms in C report a representative experiment, where cells with polarized and depolarized mitochondria are indicated in red and grey, respectively.
Flow cytometry recordings were performed as described, [51], [52]. Briefly, at the end of the incubation, cells were resuspended in 135 mM NaCl, 10 mM HEPES, 5 mM CaCl2 and incubated at 37°C in either TMRM (10 nM) to detect mitochondrial depolarization (reduced TMRM staining), or in FITC-conjugated Annexin-V and propidium iodide (PI, 1 µg/ml), to detect phosphatidylserine exposure on the cell surface (increased FITC-conjugated Annexin-V staining) and loss of plasma membrane integrity (PI permeability and staining). […] Samples were analyzed on a FACSCanto II flow cytometer (Becton Dickinson, San Diego, CA, USA). Data acquisition and analysis were performed using FACSDiva software.

[5] = test system: mitochondrial permeability transition pore (PTP), wild-type fibroblasts; assay type: cell-based, mouse; settings: Figure 4C
Experimental: A, B, PTP opening of digitonized wild-type (A) or CyP-D knock-out (B) fibroblasts was measured with the whole-cell CRC assay. Experiments were started by the addition of digitonized cells (not shown) followed by pulses of Ca^2+ (5 µM each) and are plotted as in Figure 1B. The use of AA is shown with a red trace. Alamethicin (Alm, 1 µM) was added at the end of each measurement to fully release Ca^2+ from intracellular stores. […] D, isomerase activity assay (see Materials and Methods): after addition of the substrate peptide N-succinyl-Ala-Ala-cis-trans-Pro-Phe-p-nitroanilide (arrow), chimotrypsin cleaves the trans-isomeric form, causing a rise in absorbance.
The Ca^2+ retention capacity (CRC) assay was used to assess PTP opening following trains of Ca^2+ pulses and measured fluorimetrically at 25°C in the presence of the Ca^2+ indicator Calcium Green-5N (1 µM; λexc: 505 nm; λem: 535 nm; Molecular Probes). […] Digitonin was then eliminated and the number of cells carefully assessed before starting each experiment. […] Cells or mitochondria were then exposed to Ca^2+ spikes, and fluorescence drops were used to assess mitochondrial Ca^2+ uptake. PTP opening was detected as a fluorescence increase. Calcium Green-5N fluorescence was measured either with a fluorescence spectrometer LS50B (Perkin Elmer, Waltham, MA) or with a Fluoroskan Ascent FL fluorimeter (Thermo Electron Corporation, Waltham, MA).

[6] = test system: membrane permeabilization by phalloidin; experiment: membrane permeabilization by phalloidin; assay type: cell-based; settings: data not shown

Antamanide [AA]
CRC/CRC0: difference from CRC of untreated mitochondria ([1]; AA at various concentrations, Figure 1C and D, mean±SD of at least 4 experiments, Student's t test): significant difference (Student's t test analysis; *: p<0.01) | concentration at which the effect reaches a plateau (concentration-response CRC) ([1]; Figure 2B, mean±SD of at least 4 experiments): about 20 µM | PTP inhibition in arsenate ([1]; arsenate (Asi) buffer, Figure 1B, D): abrogated in the presence of arsenate; also recorded: act as pore inhibitors only in Pi buffer | additivity of PTP inhibition with CsA ([1]; combination with CsA, Figure 1C): not additive with that of CsA | additivity of PTP inhibition with Ub0 ([1]; combination with Ub0, Figure 1C, t test #: p<0.01): AA did increase inhibition by Ub0; also recorded: additive with that of Ub0 | PTP inhibition (CRC) ([1]; phosphate-containing medium, Calcium Green-5N, 25°C): AA inhibited pore opening, similar to the PTP inhibitors CsA or Ubiquinone 0 | antitumor action (animal model): displays an antitumor action in an animal model | attenuation of edema [2]: attenuates IL-2-induced multisystem organ edema | antagonism of hepatocyte transporter for phalloidin and alpha-amanitin [3]: competitively antagonizes a hepatocyte membrane transporter | tumor cell growth inhibition (tumour cell models): inhibits tumor cell growth in vitro | antidote activity ([4]; ref [2]): strong antidote activity against phallotoxins and amatoxins | abrogation of toxic effects of phalloidin ([4]; ref [8], [9]): abrogates the toxic effects of the phallotoxin phalloidin | oxygen consumption (mouse liver mitochondria): unaffected | reversal of CTM-induced mitochondrial depolarization (HeLa cells; then CTM 1 hour): significantly decreased the percentage of cells with mitochondria depolarized by CTM (Student's t test analysis; *: p<0.01); also recorded: similarly reverted | reversal of TAT-HK-induced mitochondrial depolarization (HeLa cells; then TAT-HK 1 hour): similarly reverted | PTP inhibition (CRC/CRC0) ([5]; digitonized wild-type cells, mean±SD of at least 4 experiments): display an inhibitory effect on the PTP in wild-type | CRC/CRC0: difference from CRC of untreated mitochondria ([5]; wild-type fibroblasts, Student's t test): significant difference (Student's t test analysis; *: p<0.01) | inhibition of membrane permeabilization by phalloidin [6]: inhibits membrane permeabilization by phalloidin
